Values joined by “and” are separate entries in the source; they are usually repeats but may differ in a detail not shown here. Equal values may be shown once.
Biological target: T1, human TAS2R1 (Homo sapiens, UniProt Q9NYW7)
T1 construct: expressed in transfected cells; host or cells: HEK293T-Gα16gust44
T1 sequence (Q9NYW7 1-299): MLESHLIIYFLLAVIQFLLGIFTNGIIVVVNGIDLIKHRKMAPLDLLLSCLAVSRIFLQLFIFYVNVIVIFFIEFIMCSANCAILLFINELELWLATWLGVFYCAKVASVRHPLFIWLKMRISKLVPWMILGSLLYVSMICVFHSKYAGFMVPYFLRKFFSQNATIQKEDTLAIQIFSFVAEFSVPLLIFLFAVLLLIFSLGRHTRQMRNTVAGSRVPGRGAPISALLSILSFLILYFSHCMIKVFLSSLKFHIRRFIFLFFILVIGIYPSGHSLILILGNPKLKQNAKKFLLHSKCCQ
Test: Calcium imaging assay (FLIPR), HEK293T-Gα16gust44 cells transfected with human TAS2R1
Type: cell-based
In short: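 Read-out is Fluo-4 fluorescence change (ΔF/F) after automated application of bile acids (DMSO stocks) to transiently transfected cells. Values are corrected for empty-vector cells and normalized to buffer. Dose-response from three independent experiments in duplicate; threshold concentration set at p < 0.01 versus mock.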

`C[C@H](CCC(=O)O)[C@H]1CC[C@H]2[C@@H]3[C@@H](O)C[C@@H]4C[C@H](O)CC[C@]4(C)[C@H]3CC[C@]12C` [Ursodeoxycholic Acid, ursodeoxycholic acid] was tested, and the “Efficacy = maximal amplitude (ΔF/F)” value (TAS2R1, bile acids, mean) was 0.1201, the “Efficacy (maximal amplitude ΔF/F), individual data points” value (TAS2R1, bile acids, single replicates, listed as UDCA) was 0.1146 and 0.1323 and 0.1134 and the RLU (Time 0 s) was 0 RLU. The RLU (Time 2.015 s) was -1.909 RLU, the RLU (Time 4.015 s) was -10.1979 RLU and the RLU (Time 6.015 s) was -25.0303 RLU. It also gave an RLU (Time 8.015 s) of -6.66 RLU, an RLU (Time 12.015 s) of -0.9118 RLU and an RLU (Time 14.015 s) of -27.1256 RLU. It also gave an RLU (Time 16.015 s) of -36.3442 RLU, an RLU (Time 18.015 s) of -16.5405 RLU and an RLU (Time 18.796 s) of -5.241 RLU. It also gave an RLU (Time 20.796 s) of -5.4345 RLU, an RLU (Time 22.796 s) of -14.9172 RLU and an RLU (Time 24.796 s) of 111.581 RLU. For the same compound, the RLU (Time 26.796 s) was 220.014 RLU, the RLU (Time 28.796 s) was 332.008 RLU and the RLU (Time 30.796 s) was 471.987 RLU. The RLU (Time 32.796 s) was 554.696 RLU, the RLU (Time 34.796 s) was 591.628 RLU and the RLU (Time 36.796 s) was 614.691 RLU. The RLU (Time 38.796 s) was 661.973 RLU, the RLU (Time 40.796 s) was 688.451 RLU and the RLU (Time 42.796 s) was 682.803 RLU. It also gave an RLU (Time 44.796 s) of 694.821 RLU, an RLU (Time 46.796 s) of 713.853 RLU and an RLU (Time 48.796 s) of 712.245 RLU. It also gave an RLU (Time 50.796 s) of 701.71 RLU, an RLU (Time 52.796 s) of 706.484 RLU and an RLU (Time 54.796 s) of 693.141 RLU. It also gave an RLU (Time 56.796 s) of 703.514 RLU, an RLU (Time 58.796 s) of 690.888 RLU and an RLU (Time 60.796 s) of 687.968 RLU. The RLU (Time 62.796 s) was 660.683 RLU, the RLU (Time 64.796 s) was 647.003 RLU and the RLU (Time 66.796 s) was 672.518 RLU. It also gave an RLU (Time 68.796 s) of 641.326 RLU, an RLU (Time 70.796 s) of 644.562 RLU and an RLU (Time 72.796 s) of 618.535 RLU. For the same compound, the RLU (Time 74.796 s) was 611.038 RLU, the RLU (Time 76.796 s) was 596.187 RLU and the RLU (Time 78.796 s) was 593.169 RLU. It also gave an RLU (Time 80.796 s) of 594.173 RLU, an RLU (Time 82.796 s) of 573.074 RLU and an RLU (Time 84.796 s) of 565.693 RLU. It also gave an RLU (Time 86.796 s) of 545.003 RLU, an RLU (Time 88.796 s) of 536.557 RLU and an RLU (Time 90.796 s) of 528.103 RLU. For the same compound, the RLU (Time 92.796 s) was 490.474 RLU, the RLU (Time 94.796 s) was 507.179 RLU and the RLU (Time 96.796 s) was 484.826 RLU. For the same compound, the RLU (Time 98.796 s) was 487.253 RLU, the RLU (Time 100.796 s) was 484.348 RLU and the RLU (Time 102.796 s) was 464.491 RLU. It also gave an RLU (Time 104.796 s) of 467.659 RLU, an RLU (Time 106.796 s) of 432.725 RLU and an RLU (Time 108.796 s) of 406.747 RLU. It also gave an RLU (Time 110.796 s) of 379.699 RLU, an RLU (Time 112.796 s) of 357.544 RLU and an RLU (Time 114.796 s) of 362.533 RLU. It also gave an RLU (Time 116.796 s) of 332.202 RLU, an RLU (Time 118.796 s) of 323.517 RLU and an RLU (Time 120.796 s) of 321.799 RLU. It also gave an RLU (Time 122.796 s) of 311.834 RLU, an RLU (Time 124.796 s) of 301.938 RLU and an RLU (Time 126.796 s) of 306.062 RLU. The RLU (Time 128.796 s) was 271.359 RLU, the RLU (Time 130.796 s) was 275.474 RLU and the RLU (Time 132.796 s) was 247.428 RLU. The RLU (Time 134.796 s) was 253.899 RLU, the RLU (Time 136.796 s) was 243.041 RLU and the RLU (Time 137.562 s) was 220.326 RLU. For the same compound, the RLU (Time 143.562 s) was 203.668 RLU, the RLU (Time 149.562 s) was 176.37 RLU and the RLU (Time 155.562 s) was 166.486 RLU. For the same compound, the RLU (Time 161.562 s) was 168.826 RLU, the RLU (Time 167.562 s) was 116.188 RLU and the RLU (Time 173.562 s) was 124.68 RLU. It also gave an RLU (Time 179.562 s) of 97.5703 RLU, an RLU (Time 185.562 s) of 83.8515 RLU and an RLU (Time 191.562 s) of 81.5894 RLU. For the same compound, the RLU (Time 197.562 s) was 63.0668 RLU, the RLU (Time 203.562 s) was 46.8203 RLU and the RLU (Time 209.562 s) was 23.6957 RLU. The RLU (Time 215.562 s) was 20.9611 RLU, the RLU (Time 221.562 s) was 21.314 RLU and the RLU (Time 227.562 s) was 32.3726 RLU. For the same compound, the RLU (Time 233.562 s) was 4.71 RLU, the RLU (Time 239.562 s) was 3.353 RLU and the RLU (Time 245.562 s) was -15.0975 RLU. It also gave an RLU (Time 293.562 s) of -21.0295 RLU, an RLU (Time 299.562 s) of -10.1171 RLU and an RLU (calcium trace, sheet TAS2R1, Time 305.562 s) of -21.932 RLU. The RLU (calcium trace, sheet TAS2R1, Time 311.562 s) was -35.6948 RLU, the RLU (calcium trace, sheet TAS2R1, Time 317.562 s) was -15.7818 RLU and the RLU (calcium trace, sheet TAS2R1, Time 323.562 s) was -21.7457 RLU. It also gave an RLU (calcium trace, sheet TAS2R1, Time 329.562 s) of -25.1818 RLU, an RLU (calcium trace, sheet TAS2R1, Time 335.562 s) of -20.2182 RLU and an RLU (calcium trace, sheet TAS2R1, Time 341.562 s) of 10.616 RLU. It also gave an RLU (calcium trace, sheet TAS2R1, Time 347.562 s) of -20.1556 RLU, an RLU (calcium trace, sheet TAS2R1, Time 353.562 s) of -12.0438 RLU and an RLU (calcium trace, sheet TAS2R1, Time 359.562 s) of -31.063 RLU. For the same compound, the “Δ F/F” value (conc. 0,01 mM, TAS2R1) was 0.05863, the “Δ F/F” value (conc. 0,03 mM, TAS2R1) was 0.1201 and the “Δ F/F” value (conc. 0,0001 mM, TAS2R1) was -0.003399. For the same compound, the “Δ F/F” value (conc. 0,0003 mM, TAS2R1) was 0.009061, the “Δ F/F” value (conc. 0,001 mM, TAS2R1) was 0.007937 and the “Δ F/F” value (conc. 0,003 mM, TAS2R1) was 0.01609. The “Activation threshold concentration TAS2R1” value (lowest concentration with significantly increased fluorescence vs empty vector (p < 0.01)) was 3 µM and 3.00 µM.

— article PMC10247784, “Physiological activation of human and mouse bitter taste receptors by bile acids” (Communications Biology, 2023)
